From patent publication US20050256152A1, “Salt of a sulfonic acid containing clopidogrel and use thereof for the production of pharmaceutical formulations” (priority 2003, published 2005)
Counter-ions that a name gives are not always drawn. Like-named read-outs stand apart in the source and are kept apart here.

Experiments:
[1] = 5 hours
Method: (§1) 4.1 The stress stability of various salts of the clopidogrel was tested under different conditions. […] The following tests were conducted:
(§2) 50 mg of the salt concerned are weighed into a volumetric flask (100 ml) and 2 ml of 3% H2O2 added. Then the flask is kept either at room temperature for 5 hours or at 80° C. for 5 hours. After the end of each experiment and, optionally, cooling to room temperature, the mobile phase is added up to 100 ml.
(§3) The result is determined by means of HPLC.
(§4) In all cases, the HPLC measurements were carried out under the following conditions with UV detection: […]

[2] = Method: as §1
50 mg of the salt concerned are weighed into a volumetric flask (100 ml) and held at 80° C. for 20 hours. After the end of each experiment and cooling to room temperature, the mobile phase is added up to 100 ml.
as §3, §4

[3] = 2 ml water, 5 hours
Method: as §1
as §2, with “water” for “3% H2O2”
as §3, §4

[4] = for stress stability result by HPLC, alkaline: 2 ml 1N NaOH, 5 hours
Method: as §1
Then the flask is held either at room temperature for 5 hours or at 80° C. for 5 hours.
as §3, §4

[5] = 2 ml 1N HCl, 5 hours
Method: as §1
Then the flask is kept either at room temperature for 5 hours or at 80° C. for 5 hours.
as §3, §4

[6] = 75% relative humidity
[7] = tables 1 to 4
[8] = 40 and 60° C., 75% relative humidity, 15 days, FIG. 4

| content after 15 days (initial value normalised to 100%) ([6]; 40° C.) [%] | content after 15 days (initial value normalised to 100%) ([6]; 60° C.) [%] | Molecule | stress stability result by HPLC, oxidising ([1]; 2 ml 3% H2O2, 80° C.) [%] | stress stability result by HPLC, oxidising ([1]; 2 ml 3% H2O2, room temperature) [%] | stress stability result by HPLC, heat ([2]; solid salt, 80° C., 20 hours) [%] | stress stability result by HPLC, neutral ([3]; 80° C.) [%] | stress stability result by HPLC, neutral ([3]; room temperature) [%] | stress stability result by HPLC, alkaline ([4]; 80° C.) [%] | stress stability result by HPLC, alkaline ([4]; room temperature) [%] | stress stability result by HPLC, acidic ([5]; 80° C.) [%] | stress stability result by HPLC, acidic ([5]; room temperature) [%] | stress stability result by HPLC, heat ([2]; 20 h) [%] | other results |
| --- | --- | --- | --- | --- | --- | --- | --- | --- | --- | --- | --- | --- | --- |
| – | – | COC(=O)[C@H](c1ccccc1Cl)N1CCc2sccc2C1.O=S(=O)(O)c1ccccc1 [Clopidogrel Benzene Sulfonate (Amorphous)] | 2.94 | 0.83 | 11.52 | 3.01 | 0.85 | 25.04 | 0.64 | 2.36 | 0.64 | – | stability under alkaline conditions in comparison with the hydrogen sulfate and hydrochloride salts ([4]; alkaline conditions): considerably increased stability |
| – | – | COC(=O)[C@H](c1ccccc1Cl)N1CCc2sccc2C1 [Clopidogrel Hydrogen Sulfate, clopidogrel hydrogen sulfate, reference compound] | – | – | – | – | – | – | – | – | – | 0.31 | – |
| 103.32 | 66.48 | Clopidogrel besylate | – | – | – | – | – | – | – | – | – | – | – |
| – | – | COC(=O)[C@H](c1ccccc1Cl)N1CCc2sccc2C1.O=S(=O)(O)c1ccccc1 [Clopidogrel Benzene Sulfonate (Crystalline)] | 3.98 | 0.13 | 4.52 | 4.18 | 0.19 | 28.05 | 0.14 | 2.76 | 0.14 | – | stability in comparison with other salts (stress tests) [7]: even more stable than clopidogrel hydrogen sulfate; stability (decrease of content), compared with hydrogen sulfate and hydrochloride [8]: best stability values |
| 97.56 | 17.11 | Clopidogrel mesylate | – | – | – | – | – | – | – | – | – | – | – |

| Molecule | content after 15 days (initial value normalised to 100%) ([6]; 40° C.) [%] | content after 15 days (initial value normalised to 100%) ([6]; 60° C.) [%] | stress stability result by HPLC, oxidising ([1]; 2 ml 3% H2O2, 80° C.) [%] | stress stability result by HPLC, oxidising ([1]; 2 ml 3% H2O2, room temperature) [%] | stress stability result by HPLC, heat ([2]; solid salt, 80° C., 20 hours) [%] | stress stability result by HPLC, neutral ([3]; 80° C.) [%] | stress stability result by HPLC, neutral ([3]; room temperature) [%] | stress stability result by HPLC, alkaline ([4]; 80° C.) [%] | stress stability result by HPLC, alkaline ([4]; room temperature) [%] | stress stability result by HPLC, acidic ([5]; 80° C.) [%] | stress stability result by HPLC, acidic ([5]; room temperature) [%] | stress stability result by HPLC, heat ([2]; 20 h) [%] | other results |
| --- | --- | --- | --- | --- | --- | --- | --- | --- | --- | --- | --- | --- | --- |
| COC(=O)[C@H](c1ccccc1Cl)N1CCc2sccc2C1 [Clopidogrel Hydrochloride, clopidogrel hydrochloride, reference compound] | 93.66 | 42.54 | – | – | – | – | – | – | – | – | – | 32.43 | – |
